According to patent US8197863B2, “Hop acids as a replacement for antibiotics in animal feed” (John I. Haas, Inc., priority 2002, dated 2012):

System: total bacteria (bacterial purine)
Assay: In vitro microbe measurements: bacterial purine (total bacteria)
Format: cell-based, cattle
Settings: alfalfa; monensin 6 ppm
Description: Proprionate is largely responsible for animal growth. […] There appears to be no effect on alfalfa protozoa and alfalfa bacterial purine by the beta acids. Again, reduction in protozoa and bacteria levels means more food and energy for animal growth.

CC[C@@]1([C@@H]2O[C@@H]([C@H]3O[C@@](O)(CO)[C@H](C)C[C@@H]3C)C[C@@H]2C)CC[C@H]([C@]2(C)CC[C@]3(C[C@H](O)[C@@H](C)[C@@H]([C@@H](C)[C@@H](OC)[C@H](C)C(=O)O)O3)O2)O1 [monensin]
elimination of protozoa and bacterial purines: most effectively eliminate
